Experimental data: patent publication US9376391B2, “Difluoromethyl-nicotinic-tetrahydronaphthyl carboxamides as fungicides” (BAYER CROPSCIENCE AKTIENGESELLSCHAFT, priority 2012, dated 2016)

Assays:
[1] = system: Puccinia recondita; test: In vivo preventive test on Puccinia recondita (brown rust on wheat); settings: wheat, spray, graded 12 days after contamination vs control plants
Outline: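 Wheat seedlings ("Scipion") sprayed with compound at the 1-leaf stage, inoculated 24 h later with Puccinia recondita spores (100 000 spores per ml). Incubated 24 h at 20° C and 100% RH, then 10 days at 20° C and 70-80% RH. Efficacy (%) versus solvent-treated controls graded 12 days after contamination.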

[2] = log P by HPLC on reversed phase columns (EEC directive 79/831 Annex V.A8); type: physicochemical; settings: Table 1, formula (I); HPLC/LC-MS at pH 2.7, 0.1% formic acid in water / acetonitrile, gradient 10% to 95%
[3] = system: Sphaerotheca fuliginea; test: In vivo preventive test on Sphaerotheca fuliginea (powdery mildew on cucurbits); settings: preventive spray, gherkin plants, grading 12 days after contamination
Outline: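 Gherkin plants at Z11 cotyledon stage were sprayed with compound in acetone/tween/DMSO/water. After 24 h they were inoculated with S. fuliginea spores (100 000 spores per ml) and incubated at about 20° C and 70-80% RH. Percent efficacy versus solvent-treated controls was scored 12 days post-inoculation.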

[4] = system: Phakopsora pachyrhizi; test: Phakopsora test (soybeans)/preventive; type: in vivo; settings: evaluated 7 days after inoculation
Protocol: Phakopsora Test (Soybeans)/Preventive
To produce a suitable preparation of active compound, 1 part by weight of active compound is mixed with the stated amounts of solvent and emulsifier, and the concentrate is diluted with water to the desired concentration.
To test for preventive activity, young plants are sprayed with the preparation of active compound at the stated rate of application. After the spray coating has dried on, the plants are inoculated with an aqueous spore suspension of the causal agent of soybean rust (Phakopsora pachyrhizi) and stay for 24 h without light in an incubation cabinet at approximately 24° C. and a relative atmospheric humidity of 95%.
The plants remain in the incubation cabinet at approximately 24° C. and a relative atmospheric humidity of approximately 80% and a day/night interval of 12 h.
The test is evaluated 7 days after the inoculation. 0% means an efficacy which corresponds to that of the untreated control, while an efficacy of 100% means that no disease is observed.

[5] = system: Botrytis cinerea; test: In vivo preventive test on Botrytis cinerea (grey mould), gherkin plants; settings: gherkin, spray, graded 4 to 5 days after contamination vs control plants
Protocol: In Vivo Preventive Test on Botrytis cinerea (Grey Mould)
The active ingredients tested are prepared by homogenization in a mixture of acetone/tween/DMSO and then diluted with water to obtain the desired active material concentration.
Gherkin plants (“Vert petit de Paris” variety), sown in starter cups on a 50/50 peat soil-pozzolana substrate and grown at 24° C., are treated at the Z11 cotyledon stage by spraying with the active ingredient prepared as described above. Plants, used as controls, are treated with the mixture of acetone/tween/DMSO/water not containing the active material.
After 24 hours, the plants are contaminated by spraying the cotyledons with an aqueous suspension of cryopreserved Botrytis cinerea spores (50 000 spores per ml). The spores are suspended in a nutrient solution composed of 10 g/L of PDB, 50 g/L of D-Fructose, 2 g/L of NH4NO3 and 1 g/L of KH2PO4. The contaminated gherkin plants are incubated at 17° C. and at 90% relative humidity.
Grading (% of efficacy) is carried out 4 to 5 days after the contamination, in comparison with the control plants.

[6] = system: Alternaria brassicae; test: In vivo preventive test on Alternaria brassicae (leaf spot on radish); settings: spray, graded 6 days after contamination vs control plants
Protocol: In Vivo Preventive Test on Alternaria brassicae (Leaf Spot on Radish)
(§1) The active ingredients tested are prepared by homogenization in a mixture of acetone/tween/DMSO, and then diluted with water to obtain the desired active material concentration.
Radish plants (“Pernod Clair” variety), sown in starter cups on a 50/50 peat soil-pozzolana substrate and grown at 17° C., are treated at the cotyledon stage by spraying with the active ingredient prepared as described above. Plants, used as controls, are treated with the mixture of acetone/tween/DMSO/water not containing the active material.
After 24 hours, the plants are contaminated by spraying the cotyledons with an aqueous suspension of Alternaria brassicae spores (50 000 spores per ml). The spores are collected from a 15-day-old culture. The contaminated radish plants are incubated at 20° C. and at 100% relative humidity.
Grading (% of efficacy) is carried out 6 days after the contamination, in comparison with the control plants.

[7] = system: Uromyces appendiculatus; test: In vivo preventive test on Uromyces appendiculatus (bean rust); settings: preventive spray, bean plants, grading 11 days after contamination
Outline: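 'Saxa' bean plants at the 2-leaf stage were sprayed with compound and inoculated 24 h later with U. appendiculatus spores (150 000 spores per ml). Plants were incubated 24 h at 20 °C and 100% RH, then 10 days at 20 °C and 70–80% RH. Percent efficacy versus solvent-treated controls was graded 11 days post-inoculation.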

[8] = system: Pyrenophora teres; test: In vivo preventive test on Pyrenophora teres (net blotch on barley); settings: barley, spray, graded 14 days after contamination vs control plants
Protocol: In Vivo Preventive Test on Pyrenophora teres (Net Blotch on Barley)
as §1
Barley plants (“Plaisant” variety), sown in starter cups on a 50/50 peat soil-pozzolana substrate and grown at 22° C., are treated at the 1-leaf stage (10 cm height) by spraying with the active ingredient prepared as described above. Plants, used as controls, are treated with the mixture of acetone/tween/DMSO/water not containing the active material.
After 24 hours, the plants are contaminated by spraying the leaves with an aqueous suspension of Pyrenophora teres spores (12 000 spores per ml). The spores are collected from a 12-day-old culture. The contaminated barley plants are incubated for 48 hours at 20° C. and at 100% relative humidity, and then for 12 days at 20° C. at 70-80% relative humidity.
Grading (% of efficacy) is carried out 14 days after the contamination, in comparison with the control plants. plants.

[9] = system: Septoria tritici; test: In vivo preventive test on Septoria tritici (leaf spot on wheat); settings: 500 ppm, preventive spray, wheat plants, grading 24 days after contamination
Protocol: In Vivo Preventive Test on Septoria tritici (Leaf Spot on Wheat)
as §1
Wheat plants (“Scipion” variety), sown in starter cups on a 50/50 peat soil-pozzolana substrate and grown at 22° C., are treated at the 1-leaf stage (10 cm height) by spraying with the active ingredient prepared as described above. Plants, used as controls, are treated with the mixture of acetone/tween/DMSO/water not containing the active material.
After 24 hours, the plants are contaminated by spraying the leaves with an aqueous suspension of cryopreserved Septoria tritici spores (500 000 spores per ml). The contaminated wheat plants are incubated for 72 hours at 18° C. and at 100% relative humidity, and then for 21 days at 90% relative humidity.
Grading (% of efficacy) is carried out 24 days after the contamination, in comparison with the control plants.

Row | logP^[a] [2] | Compound | Eff. % ([1]; dose 100 ppm) [%] | Eff. % ([3]; 100 ppm) [%] | Eff. % ([4]; 10 ppm of active ingredient) [%] | Eff. % ([5]; dose 100 ppm) [%] | Eff. % ([6]; dose 100 ppm) [%] | Eff. % ([7]; 100 ppm) [%] | Eff. % ([1]; dose 500 ppm) [%] | Eff. % ([8]; dose 500 ppm) [%] | Eff. % [9] [%] | Eff. % ([3]; 500 ppm) [%] | Eff. % ([4]; 100 ppm of active ingredient) [%] | Eff. % ([7]; 500 ppm) [%] | Eff. % ([6]; dose 500 ppm) [%] | Eff. % ([8]; dose 100 ppm) [%] | Eff. % ([5]; dose 500 ppm) [%]
1 | 3.64^[a] | CCC1(C)CC(C)c2c(NC(=O)c3cccnc3C(F)F)cccc21 (mixture of isomers) [Example 81] | 100 | 94 | 100 | 100 | 70 | 99 | – | – | – | – | – | – | – | – | –
2 | 3.74^[a] | CC1CC(C)(C)c2cccc(NC(=S)c3cccnc3C(F)F)c21 (racemic) [Example 9] | – | – | – | – | – | – | 100 | 86 | 98 | 100 | 99 | 100 | – | – | –
3 | 3.25^[a] | CC1CC(C)(C)c2cccc(NC(=O)c3cccnc3C(F)F)c21 (stereo not shown) [Example 13] | – | – | – | – | – | – | 100 | 100 | 83 | 100 | 99 | 100 | 93 | – | –
4 | 3.33^[a] | CC1Cc2c(NC(=O)c3cccnc3C(F)F)cccc2C1(C)C (stereo not shown) [Example 14] | – | – | 100 | – | – | – | 100 | 92 | 97 | 98 | – | 100 | – | – | –

Further lines, the compound ahead of its results:

Row | Compound | logP^[a] [2] | Eff. % ([1]; dose 100 ppm) [%] | Eff. % ([3]; 100 ppm) [%] | Eff. % ([4]; 10 ppm of active ingredient) [%] | Eff. % ([5]; dose 100 ppm) [%] | Eff. % ([6]; dose 100 ppm) [%] | Eff. % ([7]; 100 ppm) [%] | Eff. % ([1]; dose 500 ppm) [%] | Eff. % ([8]; dose 500 ppm) [%] | Eff. % [9] [%] | Eff. % ([3]; 500 ppm) [%] | Eff. % ([4]; 100 ppm of active ingredient) [%] | Eff. % ([7]; 500 ppm) [%] | Eff. % ([6]; dose 500 ppm) [%] | Eff. % ([8]; dose 100 ppm) [%] | Eff. % ([5]; dose 500 ppm) [%]
5 | CCC1Cc2c(NC(=O)c3cccnc3C(F)F)cccc2C1(C)C (racemic) [Example 37] | 3.78^[a] | – | – | 95 | – | – | – | 100 | – | 97 | 100 | – | 100 | 96 | – | –
6 | CC(C)C1Cc2c(NC(=O)c3cccnc3C(F)F)cccc2C1(C)C (racemic) [Example 43] | 4.11^[a] | – | – | 98 | – | – | – | 98 | – | 86 | 100 | – | 100 | 100 | – | –
7 | CCC1OC(CC)(CC)c2cccc(NC(=O)c3cccnc3C(F)F)c21 (racemic) [Example 71] | 3.23^[a] | 98 | 100 | 94 | – | 88 | 100 | – | – | – | – | – | – | – | 92 | –
8 | CC1CC(C(C)C)c2cccc(NC(=O)c3cccnc3C(F)F)c21 (stereo not shown) [Example 3] | 3.65^[a] | – | – | – | – | – | – | 97 | 83 | 90 | 95 | 100 | 100 | 86 | – | –
9 | CC1CC(CC(C)(C)C)c2cccc(NC(=O)c3cccnc3C(F)F)c21 (stereo not shown) [Example 46] | 4.39^[a] | – | – | 90 | – | – | – | 98 | – | 71 | 100 | – | 100 | 98 | – | 83
10 | CC(C)CC1CC(C)c2c(NC(=O)c3cccnc3C(F)F)cccc21 (stereo not shown) [Example 57] | 4.15^[a] | – | – | 93 | – | – | – | 98 | 97 | – | 98 | – | 100 | 97 | – | –
